Assay results published in US9346761B2, “Arginine methyltransferase inhibitors and uses thereof” (Epizyme, Inc., priority 2013, dated 2016).
pIC50: −log10 of the molar value.

Legend:
[1] = target: T1, Full-length human PRMT6 (Homo sapiens, UniProt Q96LA8); test: PRMT6 biochemical assay (3H-SAM Flashplate, peptide substrate)
T1 construct: Flag-PRMT6-His was eluted with 200 ug/ml FLAG peptide in the same buffer; made in house; host or cells: HEK 293F cells (BacMam virus, pFastBacMam)
How it was run: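 Read-out is 3H-methylated histone H4 (36-50) peptide bound to streptavidin Flashplates after a cold-SAM stop. Baculovirus-expressed Flag-PRMT6-His met compound for 30 min at room temperature before SAM and peptide; Bicine pH 7.6 buffer. IC50 fitted to % inhibition normalized to SAH (min) and DMSO (max).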

[2] = target: T2, Full-length human PRMT1 isoform 1 (Homo sapiens, UniProt Q99873); test: PRMT1 biochemical assay (3H-SAM Flashplate, peptide substrate)
T2 construct: GST-tagged PRMT1; made in house; host or cells: High Five insect cells (baculovirus, pFastBacI)
How it was run: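 Tritiated methyl transfer from 3H-SAM onto biotinylated peptide, captured on streptavidin Flashplates and counted. Baculovirus-expressed GST-PRMT1 and compound were preincubated 30 min at room temperature in Bicine buffer pH 7.6. Cold SAM at 300 uM final ended the reaction.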

T2 sequence (Q99873 with tags, fused parts or gaps): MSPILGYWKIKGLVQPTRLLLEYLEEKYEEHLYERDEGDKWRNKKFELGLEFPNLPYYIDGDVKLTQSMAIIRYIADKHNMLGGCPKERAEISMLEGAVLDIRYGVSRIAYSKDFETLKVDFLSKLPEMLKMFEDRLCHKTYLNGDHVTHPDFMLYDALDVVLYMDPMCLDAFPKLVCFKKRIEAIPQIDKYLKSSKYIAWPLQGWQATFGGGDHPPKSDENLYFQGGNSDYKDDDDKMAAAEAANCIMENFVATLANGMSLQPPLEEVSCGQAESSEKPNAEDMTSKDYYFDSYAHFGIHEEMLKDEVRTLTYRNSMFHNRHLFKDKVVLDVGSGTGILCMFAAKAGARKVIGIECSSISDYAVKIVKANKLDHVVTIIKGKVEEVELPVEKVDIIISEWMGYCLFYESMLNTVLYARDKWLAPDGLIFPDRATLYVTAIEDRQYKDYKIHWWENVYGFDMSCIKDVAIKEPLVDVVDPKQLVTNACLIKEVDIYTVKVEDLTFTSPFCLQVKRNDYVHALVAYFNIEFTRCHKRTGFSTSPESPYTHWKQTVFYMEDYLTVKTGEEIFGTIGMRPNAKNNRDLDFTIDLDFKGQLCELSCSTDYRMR
T1 sequence (Q96LA8 with tags, fused parts or gaps): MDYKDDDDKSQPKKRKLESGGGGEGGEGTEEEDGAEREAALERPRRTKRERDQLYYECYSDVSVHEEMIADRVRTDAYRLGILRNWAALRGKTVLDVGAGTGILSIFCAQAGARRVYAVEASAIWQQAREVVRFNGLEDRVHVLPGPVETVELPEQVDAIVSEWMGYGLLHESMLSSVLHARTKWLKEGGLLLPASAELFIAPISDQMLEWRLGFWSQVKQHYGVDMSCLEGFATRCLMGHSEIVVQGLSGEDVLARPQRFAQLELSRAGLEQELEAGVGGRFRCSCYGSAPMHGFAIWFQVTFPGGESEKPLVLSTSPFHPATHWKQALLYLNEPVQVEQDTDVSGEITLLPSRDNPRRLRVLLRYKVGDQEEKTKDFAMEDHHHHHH

| SMILES | pIC50 [1] | pIC50 [2] |
| --- | --- | --- |
| CNCCN(C)Cc1cn(C2CC2)nc1-c1ccc(F)cc1 [Compound 13] | 6.00 to 7.00 | 5.52 to 6.00 |
| CNCCN(C)Cc1cnn(C2CC2)c1-c1ccc(F)cc1 [Compound 14] | > 7.00 | 6.00 to 7.00 |
| CNCCN(C)Cc1cn(C(C)C)nc1-c1ccc(F)cc1 [Compound 15] | 6.00 to 7.00 | 5.00 to 5.52 |
| CNCCN(C)Cc1cnn(C(C)C)c1-c1ccc(F)cc1 [Compound 16] | > 7.00 | 5.52 to 6.00 |
| CNCCN(C)Cc1cn[nH]c1-c1ccc(C#N)cc1 [Compound 17] | > 7.00 | > 7.00 |
| CNCCN(C)Cc1cn[nH]c1-c1cc(F)cc(F)c1 [Compound 18] | > 7.00 | > 7.00 |
| CCCc1ccc(-c2n[nH]cc2CN(C)CCNC)cc1 [Compound 20] | > 7.00 | > 7.00 |
| CNCCN(C)Cc1c[nH]nc1-c1cccc([N+](=O)[O-])c1 [Compound 21] | > 7.00 | > 7.00 |
| CNCCN(C)Cc1c[nH]nc1-c1cccc(C#N)c1 [Compound 22] | > 7.00 | 6.00 to 7.00 |
| CNCCN(C)Cc1c[nH]nc1-c1ccccc1OC [Compound 23] | 6.00 to 7.00 | 6.00 to 7.00 |
| CNCCN(C)Cc1c[nH]nc1-c1cccc(OC)c1 [Compound 24] | > 7.00 | > 7.00 |
| CNCCN(C)Cc1c[nH]nc1-c1ccc(OC)cc1 [Compound 25] | > 7.00 | > 7.00 |
| CNCCN(C)Cc1c[nH]nc1-c1cccc(O)c1 [Compound 26] | > 7.00 | 6.00 to 7.00 |
| CNCCN(C)Cc1c[nH]nc1-c1ccc(O)cc1 [Compound 27] | > 7.00 | > 7.00 |
| CNCCN(C)Cc1c[nH]nc1-c1ccc(CO)cc1 [Compound 28] | > 7.00 | > 7.00 |
| CNCCN(C)Cc1c[nH]nc1-c1ccc(C)cc1C [Compound 29] | > 7.00 | 6.00 to 7.00 |
| CNCCN(C)Cc1cn(CCCC(O)CO)nc1-c1ccc(F)cc1 (stereo not drawn) [Compound 30] | 6.00 to 7.00 | 5.00 to 5.52 |
| CNCCN(C)Cc1cnn(CCCC(O)CO)c1-c1ccc(F)cc1 (stereo not drawn) [Compound 31] | 6.00 to 7.00 | 6.00 to 7.00 |
| CNCCN(C)Cc1c[nH]nc1-c1ccc(N)cc1 [Compound 33] | > 7.00 | 6.00 to 7.00 |
| CNCCN(C)Cc1c[nH]nc1-c1ccc(Oc2ccccc2)cc1 [Compound 37] | > 7.00 | > 7.00 |
| CNCCN(C)Cc1c[nH]nc1-c1ccccc1C(F)(F)F [Compound 38] | 6.00 to 7.00 | 5.52 to 6.00 |
| CNCCN(C)Cc1c[nH]nc1-c1ccccc1OC(F)(F)F [Compound 40] | 6.00 to 7.00 | 6.00 to 7.00 |
| CCNC(=O)c1cccc(-c2n[nH]cc2CN(C)CCNC)c1 [Compound 43] | > 7.00 | 6.00 to 7.00 |

| SMILES | pIC50 [1] | pIC50 [2] |
| --- | --- | --- |
| CNCCN(C)Cc1c[nH]nc1-c1ccc(C(F)(F)F)cc1 [Compound 174] | > 7.00 | > 7.00 |
| CC(C)CC(=O)N1CCN(c2ccc(-c3n[nH]cc3CN(C)CCN)cc2)CC1 [Compound 180] | > 7.00 | 6.00 to 7.00 |
| CNCCN(C)Cc1c[nH]nc1-c1ccc(Cl)c(F)c1 [Compound 182] | > 7.00 | > 7.00 |
| CN(CCNC1CC1)Cc1c[nH]nc1-c1ccc(C#N)cc1 [Compound 183] | 6.00 to 7.00 | 5.52 to 6.00 |
| CN(CCN(C)C1CC1)Cc1c[nH]nc1-c1ccc(C#N)cc1 [Compound 184] | 5.52 to 6.00 | 5.52 to 6.00 |
| CN(CCN1CCC1)Cc1c[nH]nc1-c1ccc(C#N)cc1 [Compound 185] | 6.00 to 7.00 | 5.52 to 6.00 |
| CC(C)Oc1cccc(-c2n[nH]cc2CN(C)CCN)c1 [Compound 187] | > 7.00 | 6.00 to 7.00 |
| CC(C)Oc1cc(-c2n[nH]cc2CN(C)CCN)ccc1F [Compound 188] | > 7.00 | 6.00 to 7.00 |
| CCC(=O)N1CCN(c2ccc(-c3n[nH]cc3CN(C)CCN)cc2)CC1 [Compound 189] | > 7.00 | 6.00 to 7.00 |
| CC(C)CN1C(=O)COc2ccc(-c3n[nH]cc3CN(C)CCN)cc21 [Compound 191] | 6.00 to 7.00 | 6.00 to 7.00 |
| CN(CCN)Cc1c[nH]nc1-c1ccc2c(c1)OCC(=O)N2C [Compound 192] | > 7.00 | 6.00 to 7.00 |
| CC(C)CN1C(=O)COc2cc(-c3n[nH]cc3CN(C)CCN)ccc21 [Compound 193] | 6.00 to 7.00 | > 7.00 |
| CN(CCN)Cc1c[nH]nc1-c1ccc(OCCO)cc1 [Compound 194] | > 7.00 | > 7.00 |
| CN(CCN)Cc1c[nH]nc1-c1ccc(OCCCO)cc1 [Compound 195] | > 7.00 | > 7.00 |
| CN(CCN)Cc1c[nH]nc1-c1ccc2c(c1)N(C)C(=O)CO2 [Compound 196] | > 7.00 | 6.00 to 7.00 |
| CCNC(=O)c1cccc(-c2n[nH]cc2CN(C)CCN)c1 [Compound 197] | > 7.00 | 6.00 to 7.00 |
| CCN(C)C(=O)c1cccc(-c2n[nH]cc2CN(C)CCN)c1 [Compound 198] | 6.00 to 7.00 | 5.52 to 6.00 |
| Cc1cc(-c2n[nH]cc2CN(C)CCN)cc(C)c1OC(C)C [Compound 199, N^1-((3-(4-isopropoxy-3,5-dimethylphenyl)-1H-pyrazol-4-yl)methyl)-N^1-methylethane-1,2-diamine] | 6.00 to 7.00 | > 7.00 |
| CN(CCN)Cc1c[nH]nc1-c1ccc(Oc2ccccc2)c(C#N)c1 [Compound 202] | > 7.00 | > 7.00 |
| CN(CCN)Cc1n[nH]cc1-c1ccc(Oc2ccccc2)cc1 [Compound 203] | > 7.00 | > 7.00 |
| CNCCN(C)Cc1n[nH]cc1-c1ccc(Oc2ccccc2)cc1 [Compound 204] | > 7.00 | > 7.00 |
| CN(CCN)Cc1c[nH]nc1-c1ccc(Oc2cccc(F)c2)cc1 [Compound 205] | > 7.00 | > 7.00 |
| CNCCN(C)Cc1cn(C)nc1-c1ccc(OC(C)C)c(Cl)c1 [Compound 206] | > 7.00 | > 7.00 |

| SMILES | pIC50 [1] | pIC50 [2] |
| --- | --- | --- |
| CNCCN(C)Cc1cn(C)nc1-c1ccc(Oc2ccccc2)cc1 [Compound 207] | > 7.00 | > 7.00 |
| CNCCN(C)Cc1cnn(C)c1-c1ccc(Oc2ccccc2)cc1 [Compound 208] | > 7.00 | > 7.00 |
| CNCCN(C)Cc1c[nH]nc1-c1ccc(OCCCOC)cc1 [Compound 209] | > 7.00 | > 7.00 |
| CNCCN(C)Cc1n[nH]cc1-c1ccc(OC(C)C)c(F)c1 [Compound 210] | > 7.00 | > 7.00 |
| CC(C)Oc1ccc(-c2c[nH]nc2CN(C)CCN)cc1Cl [Compound 211] | > 7.00 | > 7.00 |
| CNCCN(C)Cc1n[nH]cc1-c1ccc(OC(C)C)c(Cl)c1 [Compound 212] | > 7.00 | > 7.00 |
| CCn1cc(CN(C)CCNC)c(-c2ccc(OC(C)C)cc2)n1 [Compound 213] | > 7.00 | > 7.00 |
| CNCCN(C)Cc1cn(C2CCCC2)nc1-c1ccc(OC(C)C)cc1 [Compound 214] | 6.00 to 7.00 | > 7.00 |
| CNCCN(C)Cc1cn(C2CCOC2)nc1-c1ccc(OC(C)C)cc1 (stereo not drawn) [Compound 215] | 6.00 to 7.00 | > 7.00 |
| CNCCN(C)Cc1cnn(C2CCOC2)c1-c1ccc(OC(C)C)cc1 (stereo not drawn) [Compound 216] | > 7.00 | > 7.00 |
| CNCCN(C)Cc1cn(Cc2ccccc2)nc1-c1ccc(OC(C)C)cc1 [Compound 217] | > 7.00 | > 7.00 |
| C=CCn1cc(CN(C)CCNC)c(-c2ccc(OC(C)C)cc2)n1 [Compound 218] | 6.00 to 7.00 | > 7.00 |
| C=CCn1ncc(CN(C)CCNC)c1-c1ccc(OC(C)C)cc1 [Compound 219] | > 7.00 | > 7.00 |
| CNCCN(C)Cc1c[nH]nc1-c1ccc(Oc2ccccc2)c(C#N)c1 [Compound 221] | > 7.00 | > 7.00 |
| CN(CCN)Cc1c(-c2ccc(C#N)cc2)ncn1C [Compound 222] | 5.52 to 6.00 | 5.52 to 6.00 |
| CN(CCN)Cc1c[nH]nc1-c1ccc(Oc2ccccc2)c(F)c1 [Compound 224, N^1-((3-(3-fluoro-4-phenoxyphenyl)-1H-pyrazol-4-yl)methyl)-N^1-methylethane-1,2-diamine] | > 7.00 | > 7.00 |
| CN(CCN)Cc1c[nH]nc1-c1ccc(Oc2ccc(F)cc2)cc1 [Compound 225, N^1-((3-(4-(4-fluorophenoxy)phenyl)-1H-pyrazol-4-yl)methyl)-N^1-methylethane-1,2-diamine] | > 7.00 | > 7.00 |
| CN(CCN)Cc1c[nH]nc1-c1ccc(Oc2ccccc2)c(C(=O)N(C)C)c1 [Compound 226] | > 7.00 | > 7.00 |
| CNC(=O)c1cc(-c2n[nH]cc2CN(C)CCN)ccc1Oc1ccccc1 [Compound 227] | > 7.00 | > 7.00 |
| CNCCN(C)Cc1c[nH]nc1-c1ccc(OCCCOC)c(Cl)c1 [Compound 228] | > 7.00 | > 7.00 |
| CNCCN(C)Cc1cn(C)nc1-c1ccc(OC(C)C)cc1 [Compound 243, N1-((3-(4-isopropoxyphenyl)-1-methyl-1H-pyrazol-4-yl)methyl)-N1,N2-dimethylethane-1,2-diamine] | 6.00 to 7.00 | > 7.00 |
| CNCCN(C)Cc1cn(Cc2cccnc2)nc1-c1ccc(OC(C)C)cc1 [Compound 246] | 6.00 to 7.00 | > 7.00 |
| CNCCN(C)Cc1cn(Cc2ccccn2)nc1-c1ccc(OC(C)C)cc1 [Compound 247] | 6.00 to 7.00 | 6.00 to 7.00 |
